Results from article PMC6753678, “Fueling Open Innovation for Malaria Transmission-Blocking Drugs: Hundreds of Molecules Targeting Early Parasite Mosquito Stages” (Frontiers in Microbiology, 2019).
Where two headings read alike, the source gives them in different places.

Key:
HepG2 cells [1] = assay: HepG2 cytotoxicity assay; details: HepG2 cytotoxicity unified across the three screens
Method in brief: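 Percent inhibition derived from fluorescent viability readout, normalised to DMSO (negative) and 50 μM doxorubicin (positive). Compound incubation lasted 48 h at 37°C, 5% CO2, with 2,500 HepG2 cells/well in MEM plus 10% FBS and 1% NEAA.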

[2] = system: P. falciparum late stage (stages IV-V) gametocytes; set-up: method as in Almela et al 2016; details: TCAMS screen comparison; ref Almela et al 2016; read-out: Pf GCT ATP IC50; cited from earlier work
[3] = system: P. falciparum female gametocytes; set-up: method as in Miguel-Blanco et al 2017; details: TCAMS screen comparison; ref Miguel-Blanco et al 2017; read-out: Pf FGAA IC50; cited from earlier work
HepG2 cells [4] = details: cited from earlier work
[5] = system: P. falciparum female gametocytes; assay: P. falciparum female gametogenesis assay (Pf FGAA); details: 1: YES; 0: NO
[6] = system: P. falciparum late stage (stages IV-V) gametocytes; assay: P. falciparum late stage gametocyte ATP depletion assay (Pf GC-ATP); details: 1: YES; 0: NO
[7] = value reported with the Pf FGAA screen, ref Miguel-Blanco et al 2017
[8] = value reported with the Pf GCT ATP screen, ref Almela et al 2016

Row | SMILES | Unified cytotox (HepG2 cells [1]) [µM] | IC50 [2] [nM] | IC50 [3] [nM] | HepG2 cytoxicity (HepG2 cells [4]; [7]) [µM] | HepG2 cytoxicity (HepG2 cells [4]; [8]) [µM] | Is compound selective in assay? Pf FGAA active? [5] | Is compound selective in assay? Pf GC-ATP active? [6]
1 | Cc1sc2ncnc(Sc3nnc(N)s3)c2c1C [TCMDC-124542] | 36.31 | 300 | 770 | 36.31 | >25 | 1 (1: YES) | 1 (1: YES)
2 | COc1ccc(OC)c(-c2cccc(-c3cccc(NC(=O)c4ccc([N+](=O)[O-])o4)c3)n2)c1 [TCMDC-124799] | 4.89 | 780 | 960 | 3.63 | 6.15 | 0 (0: NO) | 0 (0: NO)
3 | O=C(c1ccc([N+](=O)[O-])o1)N1CCC(Cc2ccc(C(F)(F)F)cc2)CC1 [TCMDC-124805] | 20.58 | 260 | 160 | 27.05 | 14.11 | 1 (1: YES) | 1 (1: YES)
4 | CCOc1ccc2nc3cc(NC(=O)c4ccco4)ccc3c(N)c2c1 [TCMDC-125004] | 17.72 | 190 | 4550 | 25.15 | 10.3 | 0 (0: NO) | 1 (1: YES)
5 | Cc1ccccc1OCC(O)CNC1CCC(NCC(O)COc2ccccc2C)CC1 (stereo not shown) [TCMDC-125142] | 3.93 | 140 | 1110 | 4.07 | 3.78 | 0 (0: NO) | 1 (1: YES)
6 | Cc1c(Cl)cccc1N=C(S)NN=Cc1ccccn1 [TCMDC-125487] | 100.00 | 270 | 28 | >100 | >25 | 1 (1: YES) | 1 (1: YES)
7 | Fc1ccc(NC(S)=NN=Cc2ccccn2)cc1 [TCMDC-125521] | 100.00 | 120 | 27.1 | >100 | 23.35 | 1 (1: YES) | 1 (1: YES)
8 | SC(=Nc1ccc(Cl)c(Cl)c1)NN=Cc1ccccn1 [TCMDC-125522] | 6.28 | 70 | 80 | 3.47 | 9.1 | 1 (1: YES) | 1 (1: YES)
9 | c1ccc2sc(Sc3ncnc4sccc34)nc2c1 [TCMDC-125539] | 100.00 | 500 | 140 | >100 | >25 | 1 (1: YES) | 1 (1: YES)
10 | S=C(NN=Cc1ccccn1)NC1CC2C=CC1C2 (stereo not shown) [TCMDC-125752] | 0.70 | 110 | 15.3 |  | 0.7 | 1 (1: YES) | 0 (0: NO)
11 | COc1ccc(CCNCCCCCCNCCc2ccc(-c3ccccc3)cc2)cc1OC.Cl [TCMDC-131267] | 5.07 | 170 | 1260 | 6.90 | 3.25 | 0 (0: NO) | 1 (1: YES)
12 | COc1ccc(CCNCCCCCCNCCc2ccc(Cl)c3ccccc23)cc1OC.Cl [TCMDC-131270] | 2.68 | 130 | 580 | 2.12 | 3.23 | 0 (0: NO) | 1 (1: YES)
13 | Br.Oc1ccc(CCNCCCCCCNCCc2ccc(Cl)c3ccccc23)cc1O [TCMDC-131271] | 12.36 | 530 | 2380 | 11.22 | 13.5 | 0 (0: NO) | 1 (1: YES)
14 | COc1ccc(CCNCCCCCCNCCc2ccc(Cl)cc2)c(Cl)c1OC.Cl [TCMDC-131272] | 5.87 | 260 | 830 | 5.54 | 6.2 | 0 (0: NO) | 1 (1: YES)
15 | Br.CCCCc1ccc(CCNCCCCCCNCCc2ccc(O)c(O)c2)cc1 [TCMDC-131281] | 6.41 | 540 | 2150 | 4.63 | 8.19 | 0 (0: NO) | 1 (1: YES)
16 | CCC(CSC1CCCCC1)N(C)CCN(C)C(CC)CSC1CCCCC1.Cl (stereo not shown) [TCMDC-131456] | 0.47 | 1400 | 1250 | 0.0654 | 0.87 | 0 (0: NO) | 0 (0: NO)
17 | C[C@H](Cc1ccc(C[C@@H](C)NC[C@H](O)c2cccc(Cl)c2)cc1)NC[C@H](O)COc1ccccc1.Cl [TCMDC-131549] | 4.94 | 920 | 1390 | 5.19 | 4.7 | 0 (0: NO) | 0 (0: NO)
18 | C[C@H](Cc1ccc(CCc2ccc(C[C@@H](C)NC[C@H](O)c3cccc(Cl)c3)cc2)cc1)NC[C@H](O)c1cccc(Cl)c1.Cl [TCMDC-131551] | 3.68 | 270 | 2050 | 4.27 | 3.1 | 0 (0: NO) | 1 (1: YES)
19 | C[C@H](Cc1ccc(Oc2ccc(C[C@@H](C)NC[C@H](O)c3cccc(Cl)c3)cc2)cc1)NC[C@H](O)c1cccc(Cl)c1.Cl [TCMDC-131560] | 1.98 | 270 | 720 | 2.04 | 1.91 | 0 (0: NO) | 0 (0: NO)
20 | C[C@H](Cc1ccc(OCCCCCOc2ccc(C[C@@H](C)NC[C@H](O)c3cccc(Cl)c3)cc2)cc1)NC[C@H](O)c1cccc(Cl)c1.Cl [TCMDC-131563] | 1.95 | 550 | 960 | 2.11 | 1.79 | 0 (0: NO) | 0 (0: NO)
